# Measured values: PubChem BioAssay (NCI)
#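 Values below derive from 48-hour exposures of cells grown in 96-well plates, with endpoints linearly interpolated between the two concentrations bracketing the appropriate inhibition level. The concentration for 50% growth inhibition is given as GI50. At the TGI there is no net growth.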
# What was measured:
# Assay in all cases: NCI-60 cell line screen, 48 h
# ACHN renal = tested on: ACHN renal
# CAKI-1 renal = tested on: CAKI-1 renal
# T-47D breast = tested on: T-47D breast
# SNB-19 CNS = tested on: SNB-19 CNS
# OVCAR-4 ovarian = tested on: OVCAR-4 ovarian
# SK-MEL-2 melanoma = tested on: SK-MEL-2 melanoma
# SNB-75 CNS = tested on: SNB-75 CNS
# COLO 205 colon = tested on: COLO 205 colon
# CCRF-CEM leukemia = tested on: CCRF-CEM leukemia
# HS 578T breast = tested on: HS 578T breast
# HL-60(TB) leukemia = tested on: HL-60(TB) leukemia
# NCI-H226 lung = tested on: NCI-H226 lung
# UACC-62 melanoma = tested on: UACC-62 melanoma
# UO-31 renal = tested on: UO-31 renal
# NCI-H460 lung = tested on: NCI-H460 lung
# BT-549 breast = tested on: BT-549 breast
# RXF 393 renal = tested on: RXF 393 renal
# MCF7 breast = tested on: MCF7 breast
# K-562 leukemia = tested on: K-562 leukemia
# 786-0 renal = tested on: 786-0 renal
# SN12C renal = tested on: SN12C renal
# OVCAR-8 ovarian = tested on: OVCAR-8 ovarian
# MDA-MB-231 breast = tested on: MDA-MB-231 breast
# OVCAR-5 ovarian = tested on: OVCAR-5 ovarian
# UACC-257 melanoma = tested on: UACC-257 melanoma
# SF-268 CNS = tested on: SF-268 CNS
# SR leukemia = tested on: SR leukemia
# HCC-2998 colon = tested on: HCC-2998 colon
# SF-539 CNS = tested on: SF-539 CNS
# A549 NSCLC = tested on: A549 NSCLC
# U251 CNS = tested on: U251 CNS
# A498 renal = tested on: A498 renal
# NCI/ADR-RES ovarian = tested on: NCI/ADR-RES ovarian
# HCT-116 colon = tested on: HCT-116 colon
# MALME-3M melanoma = tested on: MALME-3M melanoma
# TK-10 renal = tested on: TK-10 renal
# KM12 colon = tested on: KM12 colon
# OVCAR-3 ovarian = tested on: OVCAR-3 ovarian
# SK-OV-3 ovarian = tested on: SK-OV-3 ovarian
# HT29 colon = tested on: HT29 colon
# RPMI-8226 leukemia = tested on: RPMI-8226 leukemia
# SF-295 CNS = tested on: SF-295 CNS
# HOP-92 NSCLC = tested on: HOP-92 NSCLC
# PC-3 prostate = tested on: PC-3 prostate
# MDA-MB-435 = tested on: MDA-MB-435
# HOP-62 NSCLC = tested on: HOP-62 NSCLC
# EKVX NSCLC = tested on: EKVX NSCLC
# NCI-H522 lung = tested on: NCI-H522 lung
# DU-145 prostate = tested on: DU-145 prostate
# HCT-15 colon = tested on: HCT-15 colon
# SK-MEL-28 melanoma = tested on: SK-MEL-28 melanoma
# M14 melanoma = tested on: M14 melanoma
# SW-620 colon = tested on: SW-620 colon
# NCI-H23 lung = tested on: NCI-H23 lung
# SK-MEL-5 melanoma = tested on: SK-MEL-5 melanoma
# IGROV1 ovarian = tested on: IGROV1 ovarian
# MOLT-4 leukemia = tested on: MOLT-4 leukemia
structure (smiles),measurement,setting,value
Cn1ccnc1C(=O)/C=C/c1ccc(NC(=O)Nc2ccccc2)cc1,GI50,ACHN renal,23.1 µM
same,TGI,ACHN renal,72 µM
same,GI50,CAKI-1 renal,20.8 µM
same,TGI,CAKI-1 renal,99.3 µM
same,GI50,T-47D breast,23.4 µM
same,TGI,T-47D breast,> 100 µM
same,GI50,SNB-19 CNS,16.7 µM
same,TGI,SNB-19 CNS,42.8 µM
same,GI50,OVCAR-4 ovarian,20.2 µM
same,TGI,OVCAR-4 ovarian,> 100 µM
same,GI50,SK-MEL-2 melanoma,16.8 µM
same,TGI,SK-MEL-2 melanoma,36 µM
same,GI50,SNB-75 CNS,12.9 µM
same,TGI,SNB-75 CNS,26 µM
same,GI50,COLO 205 colon,16.9 µM
same,TGI,COLO 205 colon,31.6 µM
same,GI50,CCRF-CEM leukemia,21.5 µM
same,TGI,CCRF-CEM leukemia,> 100 µM
same,GI50,HS 578T breast,33.7 µM
same,TGI,HS 578T breast,> 100 µM
same,GI50,HL-60(TB) leukemia,15.6 µM
same,TGI,HL-60(TB) leukemia,69.1 µM
same,GI50,NCI-H226 lung,22.9 µM
same,TGI,NCI-H226 lung,> 100 µM
same,GI50,UACC-62 melanoma,15.3 µM
same,TGI,UACC-62 melanoma,30.8 µM
same,GI50,UO-31 renal,14.3 µM
same,TGI,UO-31 renal,29.4 µM
same,GI50,NCI-H460 lung,17.2 µM
same,TGI,NCI-H460 lung,47.8 µM
same,GI50,BT-549 breast,13.6 µM
same,TGI,BT-549 breast,29.9 µM
same,GI50,RXF 393 renal,12.7 µM
same,TGI,RXF 393 renal,27 µM
same,GI50,MCF7 breast,15.6 µM
same,TGI,MCF7 breast,86.3 µM
same,GI50,K-562 leukemia,8.29 µM
same,TGI,K-562 leukemia,> 100 µM
same,GI50,786-0 renal,19.1 µM
same,TGI,786-0 renal,47.3 µM
same,GI50,SN12C renal,14.9 µM
same,TGI,SN12C renal,40.4 µM
same,GI50,OVCAR-8 ovarian,25 µM
same,TGI,OVCAR-8 ovarian,> 100 µM
same,GI50,MDA-MB-231 breast,16.9 µM
same,TGI,MDA-MB-231 breast,34 µM
same,GI50,OVCAR-5 ovarian,19.9 µM
same,TGI,OVCAR-5 ovarian,55.1 µM
same,GI50,UACC-257 melanoma,16.1 µM
same,TGI,UACC-257 melanoma,38.8 µM
same,GI50,SF-268 CNS,28.7 µM
same,TGI,SF-268 CNS,> 100 µM
same,GI50,SR leukemia,4.9 µM
same,TGI,SR leukemia,75.3 µM
same,GI50,HCC-2998 colon,14.7 µM
same,TGI,HCC-2998 colon,28.6 µM
same,GI50,SF-539 CNS,13.9 µM
same,TGI,SF-539 CNS,28.5 µM
same,GI50,A549 NSCLC,21.8 µM
same,TGI,A549 NSCLC,> 100 µM
same,GI50,U251 CNS,13.6 µM
same,TGI,U251 CNS,29.6 µM
same,GI50,A498 renal,21.3 µM
same,TGI,A498 renal,65.6 µM
same,GI50,NCI/ADR-RES ovarian,29 µM
same,TGI,NCI/ADR-RES ovarian,> 100 µM
same,GI50,HCT-116 colon,13.3 µM
same,TGI,HCT-116 colon,26.6 µM
same,GI50,MALME-3M melanoma,18.3 µM
same,TGI,MALME-3M melanoma,50.7 µM
same,GI50,TK-10 renal,29.8 µM
same,TGI,TK-10 renal,> 100 µM
same,GI50,KM12 colon,18.1 µM
same,TGI,KM12 colon,41.8 µM
same,GI50,OVCAR-3 ovarian,29 µM
same,TGI,OVCAR-3 ovarian,> 100 µM
same,GI50,SK-OV-3 ovarian,32.5 µM
same,TGI,SK-OV-3 ovarian,> 100 µM
same,GI50,HT29 colon,15.9 µM
same,TGI,HT29 colon,31 µM
same,GI50,RPMI-8226 leukemia,16 µM
same,TGI,RPMI-8226 leukemia,54.8 µM
same,GI50,SF-295 CNS,14.8 µM
same,TGI,SF-295 CNS,46.4 µM
same,GI50,HOP-92 NSCLC,20.6 µM
same,TGI,HOP-92 NSCLC,69.1 µM
same,GI50,PC-3 prostate,18.4 µM
same,TGI,PC-3 prostate,49.5 µM
same,GI50,MDA-MB-435,21.6 µM
same,TGI,MDA-MB-435,58.3 µM
same,GI50,HOP-62 NSCLC,24.1 µM
same,TGI,HOP-62 NSCLC,69.2 µM
same,GI50,EKVX NSCLC,22.6 µM
same,TGI,EKVX NSCLC,63.4 µM
same,GI50,NCI-H522 lung,13 µM
same,TGI,NCI-H522 lung,27.3 µM
same,GI50,DU-145 prostate,12.5 µM
same,TGI,DU-145 prostate,32.5 µM
same,GI50,HCT-15 colon,7.16 µM
same,TGI,HCT-15 colon,27.2 µM
same,GI50,SK-MEL-28 melanoma,16.2 µM
same,TGI,SK-MEL-28 melanoma,32.8 µM
same,GI50,M14 melanoma,20.8 µM
same,TGI,M14 melanoma,58.5 µM
same,GI50,SW-620 colon,18.7 µM
same,TGI,SW-620 colon,54.3 µM
same,GI50,NCI-H23 lung,16.1 µM
same,TGI,NCI-H23 lung,37.3 µM
same,GI50,SK-MEL-5 melanoma,15.7 µM
same,TGI,SK-MEL-5 melanoma,29.4 µM
same,GI50,IGROV1 ovarian,19.1 µM
same,TGI,IGROV1 ovarian,64.1 µM
same,GI50,MOLT-4 leukemia,16.5 µM
same,TGI,MOLT-4 leukemia,85.1 µM
